Assay results from publication PMC6718442, “11β-Hydroxysteroid dehydrogenases control access of 7β,27-dihydroxycholesterol to retinoid-related orphan receptor γ” (Journal of Lipid Research, 2019).
Where two headings read alike, the source gives them in different places.

Experiments:
mouse 11β-hsd1 = target: T1, mouse 11β-hsd1 (Mus musculus, UniProt P50172); test: Inhibition of murine 11β-hsd1-dependent oxoreduction of cortisone in HEK-293 cell lysates; type: biochemical; conditions: for IC50: mouse ortholog, 200 nM cortisone, 10 min, 37°C, read-out: IC50, mouse 11β-hsd1-dependent conversion of cortisone to cortisol
T1 construct: expressed in transfected cells; host or cells: HEK-293
T1 sequence (P50172 whole entry): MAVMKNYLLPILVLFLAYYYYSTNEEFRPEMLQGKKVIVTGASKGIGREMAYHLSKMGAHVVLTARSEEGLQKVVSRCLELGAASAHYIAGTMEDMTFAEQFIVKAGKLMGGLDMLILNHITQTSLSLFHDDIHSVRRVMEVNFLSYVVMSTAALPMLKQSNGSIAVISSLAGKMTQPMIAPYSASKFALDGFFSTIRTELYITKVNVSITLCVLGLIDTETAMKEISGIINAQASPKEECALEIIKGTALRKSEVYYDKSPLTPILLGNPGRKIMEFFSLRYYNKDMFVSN
Procedure: (§1) 11β-HSD1 and 11β-HSD2 enzyme activities were assessed in lysates of HEK-293 cells stably expressing the respective enzyme as reported earlier ([40]). Briefly, 11β-HSD1-dependent oxoreductase activity was determined by the incubation of lysates with 200 nM of radiolabeled cortisone, 500 μM of NADPH, and the test substance or vehicle for 10 min at 37°C. 11β-HSD2-dependent oxidation of cortisol was measured instead by the addition of 50 nM of radiolabeled cortisol and 500 μM of NAD^+. The enzymatic reaction was stopped by introducing an excess amount of unlabeled cortisone and cortisol (1:1, 2 mM unlabeled each, in methanol). Cortisone and cortisol were separated using TLC and a chloroform and methanol (9:1, v/v) mixture. The bands were detected under UV light, scraped off the plate, and metabolism of the radiolabeled substrate was then evaluated by scintillation counting and the substrate conversion determined and compared with the control sample. Data (mean ± SD) were normalized to the control (DMSO) sample and obtained from at least three independent experiments.

RORγ = target: T2, RORγ (Homo sapiens, UniProt P51449); test: RORγ reporter gene assay in doxycycline-inducible RORγ CHO Tet-on cells transfected with 11β-HSD1/H6PDH, 11β-HSD2 or pcDNA3; type: cell-based; set-up: only weakly by 7k27OHC when full-length receptors are considered [([31]), present study]; expressed in transfected cells
T2 sequence (P51449 1-518): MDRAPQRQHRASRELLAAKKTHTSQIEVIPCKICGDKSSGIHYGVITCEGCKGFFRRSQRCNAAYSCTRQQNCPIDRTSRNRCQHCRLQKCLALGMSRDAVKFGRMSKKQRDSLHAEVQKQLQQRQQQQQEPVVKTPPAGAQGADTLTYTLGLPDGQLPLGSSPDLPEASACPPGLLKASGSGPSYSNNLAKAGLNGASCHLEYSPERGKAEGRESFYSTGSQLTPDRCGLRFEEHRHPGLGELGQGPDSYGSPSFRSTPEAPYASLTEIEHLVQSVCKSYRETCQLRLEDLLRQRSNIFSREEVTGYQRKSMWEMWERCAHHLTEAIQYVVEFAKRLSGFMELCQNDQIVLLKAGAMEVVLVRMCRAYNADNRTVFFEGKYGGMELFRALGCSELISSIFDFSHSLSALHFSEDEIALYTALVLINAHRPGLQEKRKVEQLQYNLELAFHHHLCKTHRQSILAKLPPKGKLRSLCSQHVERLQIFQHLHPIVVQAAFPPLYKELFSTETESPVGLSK
Procedure: Doxycycline-inducible RORγ CHO Tet-on cells were transfected with 11β-HSD1/H6PDH, 11β-HSD2. or pcDNA3 using the electroporation method according to the manufacturer’s protocol (Neon™ transfection system; Invitrogen). Briefly, the cells […]). Three electric pulses of 1,620 V and 10 ms were delivered to the cells using a 100 μl gold tip. Then, the cells (20,000 cells per well) were seeded in 96-well plates using culture medium without antibiotics and incubated for 16 h. The medium was replaced with medium containing charcoal-dextran stripped FBS for 1.5 h before treating the cells with different concentrations of oxysterols. After 6 h, 1.25 μM of the inverse agonist SR2211 was added to the treatment for another 2 h. To induce ROR expression, the cells were additionally subjected to 1 μM doxycycline for a further 16 h. The cells were lysed in 20 μl Tropix lysis solution supplemented with 0.5 mM dithiothreitol. RORγ-mediated activation of the luciferase reporter was measured in 10 μl lysate by adding 100 μl of D-luciferin-firefly substrate solution. Data (mean ± SD) were obtained from at least three independent experiments.

human 11β-HSD1 = target: T3, human 11β-HSD1 (Homo sapiens, UniProt P28845); test: Inhibition of 11β-HSD1-dependent oxoreduction of cortisone in HEK-293 cell lysates; type: biochemical; conditions: for IC50: human enzyme, 200 nM cortisone, read-out: IC50, 11β-HSD1-dependent conversion of cortisone to cortisol
T3 construct: expressed in transfected cells
T3 sequence (P28845 whole entry): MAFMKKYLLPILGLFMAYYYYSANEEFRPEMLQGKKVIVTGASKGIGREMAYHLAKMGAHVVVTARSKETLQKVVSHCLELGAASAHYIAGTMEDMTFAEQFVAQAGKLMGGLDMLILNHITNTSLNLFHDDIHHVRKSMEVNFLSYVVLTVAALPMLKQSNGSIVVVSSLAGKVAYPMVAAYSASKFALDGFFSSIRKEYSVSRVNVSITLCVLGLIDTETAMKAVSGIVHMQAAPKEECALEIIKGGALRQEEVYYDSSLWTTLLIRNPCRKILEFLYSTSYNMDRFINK
Procedure: as §1

mouse 11β-hsd2 = target: T4, mouse 11β-hsd2 (Mus musculus, UniProt P51661); test: 11β-hsd2 activity in mouse kidney homogenates (corticosterone to 11-dehydrocorticosterone); type: biochemical
T4 construct: The determination of 11β-hsd2 activity in mouse kidney homogenates; from tissue; host or cells: kidney of adult male C57BL6 mice
T4 sequence (P51661 1-386): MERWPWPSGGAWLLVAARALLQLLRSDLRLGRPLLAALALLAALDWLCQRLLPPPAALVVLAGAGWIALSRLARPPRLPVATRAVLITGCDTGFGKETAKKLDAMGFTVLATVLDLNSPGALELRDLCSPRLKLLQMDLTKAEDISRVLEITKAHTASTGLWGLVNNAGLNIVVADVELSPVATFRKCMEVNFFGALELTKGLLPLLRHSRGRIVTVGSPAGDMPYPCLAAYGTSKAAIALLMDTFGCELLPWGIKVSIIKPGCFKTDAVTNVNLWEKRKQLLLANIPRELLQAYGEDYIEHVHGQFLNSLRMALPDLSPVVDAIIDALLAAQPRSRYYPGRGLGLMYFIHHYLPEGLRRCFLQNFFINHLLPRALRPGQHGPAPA
Procedure: The determination of 11β-hsd2 activity in mouse kidney homogenates was conducted as described earlier ([41]). Briefly, for homogenate preparation, kidneys from adult male mice (C57BL6) were snap-frozen and sonicated in homogenization buffer [250 mM sucrose, 10 mM HEPES (pH 7.4); 900 μl for 100 mg of tissue]. Then, the homogenate was centrifuged (2,000 g, 4°C for 10 min) and the total protein concentration determined. The enzymatic reaction was assessed using 0.075 mg/ml total protein of the kidney homogenate in incubation buffer [300 mM NaCl, 20 mM Tris/HCl, 1 mM EDTA, 10% glycerol (pH 7.7)], different concentrations of oxysterols, 50 nM of corticosterone (containing 50 nCi [1,2,6,7-^3H] corticosterone), and 500 μM NAD^+ at 37°C for 20 min. Corticosterone and 11-dehydrocorticosterone were separated using TLC. Substrate conversion was determined by scintillation counting. Data (mean ± SD) were normalized to vehicle control (DMSO) and obtained from at least three independent experiments.

[1] = 11β-HSD2 expressing RORγ Tet-on cells

CC(CO)CCC[C@@H](C)[C@H]1CC[C@H]2[C@@H]3C(=O)C=C4C[C@@H](O)CC[C@]4(C)[C@H]3CC[C@]12C (stereo partly shown) [7k27OHC, 7-keto,27-hydroxycholesterol]
IC50 (mouse 11β-hsd1): 0.036 ± 0.002 µM
Reversal of the inhibitory effect of SR2211 on RORγ reporter (in words) (RORγ; [1]): weak response
Reversal of the inhibitory effect of SR2211 on RORγ reporter (in words) (RORγ; coexpression of RORγ with 11β-HSD1): capable of reversing the inhibitory effect of the RORγ antagonist, SR2211, in the same manner as 7β27OHC
IC50 (human 11β-HSD1; 10 min, 37°C): 0.357 ± 0.038 µM
IC50 (mouse 11β-hsd2; 50 nM corticosterone, 20 min, 37°C, read-out: IC50, mouse 11β-hsd2 activity (corticosterone to 11-DHC)): 1.65 ± 0.4 µM

C[C@@H](CO)CCC[C@@H](C)[C@H]1CC[C@H]2[C@@H]3[C@H](O)C=C4C[C@@H](O)CC[C@]4(C)[C@H]3CC[C@]12C [7α27OHC]
Rest enzyme activity of mouse 11β-hsd1 (mouse 11β-hsd1; 1 μM test substance, data not shown): ~30%
Effect on RORγ reporter (in words) (RORγ; only control plasmid expressed, data not shown): same weak concentration-dependent effect as 7k27OHC
Inhibition of human 11β-HSD1 enzyme activity (in words) (human 11β-HSD1; concentrations up to 10 μM, data not shown): did not inhibit the enzyme activity
Inhibition of mouse 11β-hsd2 activity (in words) (mouse 11β-hsd2): Neither 7β27OHC nor 7α27OHC inhibited

CC(CO)CCC[C@@H](C)[C@H]1CC[C@H]2[C@@H]3[C@@H](O)C=C4C[C@@H](O)CC[C@]4(C)[C@H]3CC[C@]12C (stereo partly drawn) [7β27OHC, 7β,27-dihydroxycholesterol]
IC50 (mouse 11β-hsd1): 0.066 ± 0.011 µM
Reversal of the inhibitory effect of SR2211 on RORγ reporter (in words) (RORγ; [1]): could not restore RORγ activity
IC50 (human 11β-HSD1): ≥ 3 µM
Inhibition of mouse 11β-hsd2 activity (in words) (mouse 11β-hsd2): Neither 7β27OHC nor 7α27OHC inhibited
